System: Dog PRP
Assay: In-Vitro Platelet Aggregation in PRP (ADP-induced, dog platelet-rich plasma)
Type: cell-based
Details: Canis lupus familiaris, 1 minute preincubation at 37° C., IC50 by linear regression of dose response curve
Experimental: In-Vitro Platelet Aggregation in PRP
Healthy male or female dogs were fasted for 8 hours prior to drawing blood; then 30 ml whole blood was collected using a butterfly needle and 30 cc plastic syringe with 3 ml of 0.129M buffered sodium citrate (3.8%). The syringe was rotated carefully as blood was drawn to mix the citrate. Platelet-rich plasma (PRP) was prepared by centrifugation at 975×g for 3.17 minutes at room temperature, allowing the centrifuge to coast to a stop without braking. The PRP was removed from the blood with a plastic pipette and placed in a plastic capped, 50 ml Corning conical sterile centrifuge tube which was held at room temperature. Platelet poor plasma (PPP) was prepared by centrifuging the remaining blood at 2000×g for 15 minutes at room temperature allowing the centrifuge to coast to a stop without braking. The PRP was adjusted with PPP to a count of 2-3×10^8 platelets per ml. 400 μl of the PRP preparation and 50 μl of the compound to be tested or saline were preincubated for 1 minute at 37° C. in a BioData aggregometer (BioData, Horsham, Pa.). 50 μl of adenosine 5'-diphosphate (ADP) (50 μm final concentration) was added to the cuvettes and the aggregation was monitored for 1 minute. All compounds are tested in duplicate. Results are calculated as follows: […]

| SMILES | IC50 [nM] |
| --- | --- |
| N=C(N)c1ccc(CCCCNC(=O)N[C@@H](CC(=O)O)C(=O)N[C@@H](Cc2c[nH]c3ccccc23)C(=O)O)cc1 [Example 3, N-[N-[[[4-[4-(aminoiminomethyl)phenyl]butyl]amino]carbonyl]-L-α-spartyl]-L-tryptophane] | 200 |
| N=C(N)c1ccc(CCCCNC(=O)N[C@@H](CC(=O)O)C(=O)N[C@@H](Cc2ccccc2)C(=O)O)cc1 [Example 2, N-[N-[[[4-[4-(aminoiminomethyl)phenyl]butyl]amino]-carbonyl]-L-α-aspartyl]-L-phenylalanine] | 760 |

Reference: patent publication US5354738A, “Platelet aggregation inhibitors” (G. D. Searle & Co., priority 1992, dated 1994)
